Results reported in PubChem BioAssay AID2060627 (Molecular Pharmacology Branch, DTP, NCI, 2025).

Test system: 156681-154-R-J1-PDC complex spheroid viability
Assay: Anticancer human tumor 156681-154-R-J1-PDC patient-derived melanoma cell line growth inhibition [CLK]
Settings: for IC50: curve of first compound; for viability, T/C: stronger effect = lower value
Source text: A high-throughput screen of multi-cell type tumor spheroids was designed to identify active combinations of […] and targeted small molecules. Complex spheroids include a stromal component modeled by human endothelial cells (HUVEC) and fibroblasts modeled by human mesenchymal stem cells (MSCs). The concentration ranges selected for each drug and investigational agent were based upon clinically achievable concentrations if the clinical Cmax of the agent was known.
Compounds. The drugs and investigational agents: cirtuvivint (SM08502; NSC835563), CC-671 (NSC850746), vemurafenib (NSC761431), tapotoclax (NSC804041), sotorasib (NSC818433), adagrasib (NSC831453), MRTX-1133 (NSC836407), BAY2416964 (NSC825713), copanlisib (NSC816437), inavolisib (NSC800729), abemaciclib (NSC768073), osimertinib (NSC779217), entinostat (NSC756642), eltanexor (KPT-8602, NSC794443), venetoclax (NSC766270), ceralasertib (NSC777638), bortezomib (NSC756655), olaparib (NSC753686), talazoparib (NSC767125), alisertib (NSC759677), peposertib (NSC802822), gemcitabine (NSC613327), 5-fluorouracil (NSC19893), SN-38 (NSC673596), oxaliplatin (NSC266046), paclitaxel (NSC125973), and doxorubicin (NSC123127), were obtained from the National Cancer Institute (NCI) Developmental Therapeutics Program Chemical Repository. The FDA-approved anticancer drug set is available from the Developmental Therapeutics Program at https://dtp.cancer.gov/organization/dscb/obtaining/available plates.htm. […] The stock solutions were prepared in dimethyl sulfoxide (DMSO, Sigma-Aldrich, St. Louis, MO, cat. D2650), except for the platinum complexes which were prepared in saline (Quality Biological, Gaithersburg, MD, cat. 114-055-101), at 800-fold the tested concentration and stored at -70 degrees C prior to their use. All drugs and investigational agents were tested over a range starting from a high concentration at or near the clinical Cmax and decreasing in half-log increments. If the clinical Cmax for an agent had not been determined, the highest concentration tested was 10 microM.
Cell Culture. All cells were maintained in an incubator at 37 degrees C and 5% CO2 with 95% humidity. The PDC lines were cultured according to standard operating procedures established by the NCI PDMR. Briefly, all PDCs were thawed and cultured in Matrigel-coated flasks prepared with a working solution of 1X Ham's F-12 nutrient mix, without supplementation (Invitrogen, Waltham, MA, cat. 11765054), 100 U/mL penicillin-streptomycin (Invitrogen, cat. 15140122), and 2.5% Matrigel (Corning Inc., Corning, NY, cat. 354248) for the first three passages. The 947758-054-R-J2-PDC line was cultured in 6B/Colon 1A media, which includes advanced DMEM/F-12 (Thermo Fisher Scientific, cat. 12634028), 10 mM HEPES (Thermo Fisher Scientific, cat. 15630080), 1X GlutaMAX supplement (Thermo Fisher Scientific, cat. 35050061), 0.1 mg/mL primocin (InvivoGen, cat. ant-pm-2), 10% defined fetal bovine serum, heat inactivated (HyClone Laboratories Inc., cat. SH30070.03HI), 1.25 mM N-Acetyl-L-cysteine (Sigma-Aldrich, cat. A9165), 10 mM nicotinamide (Sigma-Aldrich, cat. N0636), 1X B-27 supplement (Thermo Fisher Scientific, cat. 17504044), 1X N-2 supplement (Thermo Fisher Scientific, cat. 17502048), and 10 microM Y-27632 dihydrochloride (Tocris Bioscience, cat. 1254). The 876862-298-R-J1-PDC was cultured in 6E media, which includes all 6B/Colon 1A media components plus 50% L-WRN conditioned media (ATCC, cat. CRL-3276), 50 ng/mL recombinant human EGF recombinant protein (hEGF; Thermo Fisher Scientific, cat. PHG0311), 10 ng/mL recombinant human fibroblast growth factor 10 (hGFG-10; PeproTech, cat. 100-26), 1 ng/mL recombinant human fibroblast growth factor 2 (hFGF-2; PeproTech, cat. 100-18B), and 1 µM prostaglandin E2 (PGE2; Tocris, cat. 2296). The 227483-062-R1-J1-PDC line was cultured in Panc media, containing all 6E components except hFGF-2, with the addition of 500 nM SB-431542 (Selleckchem, cat. S1067) and 10 nM gastrin (Tocris, cat. 3006). […]

[1] = second compound 0.0316 µM, first compound 0.0316 µM
[2] = second compound 0.0316 µM, first compound 0.1 µM
[3] = second compound 0.0316 µM, first compound 0.316 µM
[4] = second compound 0.0316 µM, first compound 1 µM
[5] = second compound 0.0316 µM, first compound 3.16 µM
[6] = second compound 0.0316 µM, first compound 10 µM
[7] = second compound 0.1 µM, first compound 0.0316 µM
[8] = second compound 0.1 µM, first compound 0.1 µM
[9] = second compound 0.1 µM, first compound 0.316 µM
[10] = second compound 0.1 µM, first compound 1 µM
[11] = second compound 0.1 µM, first compound 3.16 µM
[12] = second compound 0.1 µM, first compound 10 µM
[13] = second compound 0.316 µM, first compound 0.0316 µM
[14] = second compound 0.316 µM, first compound 0.1 µM
[15] = second compound 0.316 µM, first compound 0.316 µM
[16] = second compound 0.316 µM, first compound 1 µM
[17] = second compound 0.316 µM, first compound 3.16 µM
[18] = second compound 0.316 µM, first compound 10 µM
[19] = second compound 1 µM, first compound 0.0316 µM
[20] = second compound 1 µM, first compound 0.1 µM
[21] = second compound 1 µM, first compound 0.316 µM
[22] = second compound 1 µM, first compound 1 µM
[23] = second compound 1 µM, first compound 3.16 µM
[24] = second compound 1 µM, first compound 10 µM
[25] = second compound 3.16 µM, first compound 0.0316 µM
[26] = second compound 3.16 µM, first compound 0.1 µM
[27] = second compound 3.16 µM, first compound 0.316 µM
[28] = second compound 3.16 µM, first compound 1 µM
[29] = second compound 3.16 µM, first compound 3.16 µM
[30] = second compound 3.16 µM, first compound 10 µM
[31] = second compound 10 µM, first compound 0.0316 µM
[32] = second compound 10 µM, first compound 0.1 µM
[33] = second compound 10 µM, first compound 0.316 µM
[34] = second compound 10 µM, first compound 1 µM
[35] = second compound 10 µM, first compound 3.16 µM
[36] = second compound 10 µM, first compound 10 µM
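Also: spheroids exposed to the agents for seven days.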
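For viability, T/C in this document: 100% = DMSO vehicle control viability.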

Q: `C#Cc1c(F)ccc2cc(O)cc(-c3ncc4c(N5CC6CCC(C5)N6)nc(OCC56CCCN5CC(F)C6)nc4c3F)c12` (centres undefined) + CN1CCN(c2cc(C(=O)Nc3cc4cc(-c5cnn(C)c5)ccc4cn3)ccn2)CC1 was tested. Which IC50 (second compound 0.0316 µM) did it give?
A: > 10000 nM

Q: And the IC50 (second compound 0.1 µM)?
A: > 10000 nM

Q: What about the IC50 (second compound 0.316 µM) of the same compound?
A: < 31.6 nM

Q: And the IC50 (second compound 1 µM)?
A: < 31.6 nM

Q: And the IC50 (second compound 3.16 µM)?
A: < 31.6 nM

Q: And the IC50 (second compound 10 µM)?
A: < 31.6 nM

Q: And the viability, T/C [1]?
A: 100%

Q: What about the viability, T/C [2] of the same compound?
A: 81.5%

Q: And the viability, T/C [3]?
A: 97%

Q: And the viability, T/C [4]?
A: 120%

Q: And the viability, T/C [5]?
A: 98.2%

Q: And the viability, T/C [6]?
A: 119%

Q: What about the viability, T/C [7] of the same compound?
A: 84.4%

Q: What about the viability, T/C [8] of the same compound?
A: 86.7%

Q: And the viability, T/C [9]?
A: 92.6%

Q: What about the viability, T/C [10] of the same compound?
A: 100%

Q: And the viability, T/C [11]?
A: 95.8%

Q: What about the viability, T/C [12] of the same compound?
A: 97%

Q: What about the viability, T/C [13] of the same compound?
A: 29%

Q: And the viability, T/C [14]?
A: 22.5%

Q: And the viability, T/C [15]?
A: 25.9%

Q: What about the viability, T/C [16] of the same compound?
A: 26.7%

Q: And the viability, T/C [17]?
A: 31.9%

Q: What about the viability, T/C [18] of the same compound?
A: 20.6%

Q: And the viability, T/C [19]?
A: 0.31%

Q: What about the viability, T/C [20] of the same compound?
A: 2.37%

Q: And the viability, T/C [21]?
A: 0.28%

Q: And the viability, T/C [22]?
A: 0.23%

Q: And the viability, T/C [23]?
A: 0.15%

Q: What about the viability, T/C [24] of the same compound?
A: 1.07%

Q: What about the viability, T/C [25] of the same compound?
A: 0.15%

Q: And the viability, T/C [26]?
A: 0.39%

Q: And the viability, T/C [27]?
A: 0.11%

Q: And the viability, T/C [28]?
A: 0.49%

Q: And the viability, T/C [29]?
A: 0.15%

Q: And the viability, T/C [30]?
A: 0.12%

Q: What about the viability, T/C [31] of the same compound?
A: 0.19%

Q: What about the viability, T/C [32] of the same compound?
A: 2.4%

Q: And the viability, T/C [33]?
A: 0.37%

Q: What about the viability, T/C [34] of the same compound?
A: 0.17%

Q: What about the viability, T/C [35] of the same compound?
A: 0.18%

Q: What about the viability, T/C [36] of the same compound?
A: 0.17%

Q: What does the source list for `C=C(F)C(=O)N1CCN(c2nc(OCC3CCCN3C)nc3c2CCN(c2cccc4cccc(Cl)c24)C3)CC1CC#N` (centres undefined) + CN1CCN(c2cc(C(=O)Nc3cc4cc(-c5cnn(C)c5)ccc4cn3)ccn2)CC1?
A: IC50 (second compound 0.0316 µM): 2590 nM; IC50 (second compound 0.1 µM): 1770 nM; IC50 (second compound 0.316 µM): < 31.6 nM; IC50 (second compound 1 µM): < 31.6 nM; IC50 (second compound 3.16 µM): < 31.6 nM; IC50 (second compound 10 µM): < 31.6 nM; viability, T/C [1]: 101%; viability, T/C [2]: 107%; viability, T/C [3]: 108%; viability, T/C [4]: 81.1%; viability, T/C [5]: 44%; viability, T/C [6]: 0.43%; viability, T/C [7]: 94.3%; viability, T/C [8]: 94.6%; viability, T/C [9]: 91.7%; viability, T/C [10]: 79.5%; viability, T/C [11]: 20%; viability, T/C [12]: 0.6%; viability, T/C [13]: 22.1%; viability, T/C [14]: 24.1%; viability, T/C [15]: 23.3%; viability, T/C [16]: 24.7%; viability, T/C [17]: 6.76%; viability, T/C [18]: 1.76%; viability, T/C [19]: 0.16%; viability, T/C [20]: 0.32%; viability, T/C [21]: 0.25%; viability, T/C [22]: 0.59%; viability, T/C [23]: 0.1%; viability, T/C [24]: 0.24%; viability, T/C [25]: 0.12%; viability, T/C [26]: 1.74%; viability, T/C [27]: 1.8%; viability, T/C [28]: 0.12%; viability, T/C [29]: 0.36%; viability, T/C [30]: 1.56%; viability, T/C [31]: 0.17%; viability, T/C [32]: 0.19%; viability, T/C [33]: 1.71%; viability, T/C [34]: 0.23%; viability, T/C [35]: 0.23%; viability, T/C [36]: 0.8%
